Tested on: 186277-243-T-J2-PDC spheroids with HUVEC/MSC, viability
Test: Anticancer human tumor 186277-243-T-J2-PDC patient-derived colon adenocarcinoma cell line growth inhibition [CLK]
Conditions: for IC50: curve of first compound; for viability, T/C: stronger effect = lower value
Outline: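 Patient-derived tumor cells grown as complex spheroids with HUVEC endothelial cells and mesenchymal stem cells, treated with drug combinations. Concentrations descend in half-log steps from near clinical Cmax, or from 10 microM if Cmax unknown.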
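Also: compound exposure lasted seven days before readout.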
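For viability, T/C in this document: 100% = DMSO vehicle control wells.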

Which results are given for `C=CC(=O)Nc1cc(Nc2nccc(-c3cn(C)c4ccccc34)n2)c(OC)cc1N(C)CCN(C)C` + CNC(=O)c1ccc(Nc2nc(OC3CCCC3)c3c(-c4ccc5nc(C)oc5c4)c[nH]c3n2)c(OC)c1?
IC50 (second compound 0.0316 µM): > 300 nM; IC50 (second compound 0.1 µM): 203 nM; IC50 (second compound 0.316 µM): < 0.949 nM; IC50 (second compound 1 µM): < 0.949 nM; IC50 (second compound 3.16 µM): < 0.949 nM; IC50 (second compound 10 µM): < 0.949 nM; viability, T/C (second compound 0.0316 µM, first compound 0.000949 µM): 118%; viability, T/C (second compound 0.0316 µM, first compound 0.003 µM): 109%; viability, T/C (second compound 0.0316 µM, first compound 0.00949 µM): 101%; viability, T/C (second compound 0.0316 µM, first compound 0.03 µM): 93.7%; viability, T/C (second compound 0.0316 µM, first compound 0.0949 µM): 97.9%; viability, T/C (second compound 0.0316 µM, first compound 0.3 µM): 101%; viability, T/C (second compound 0.1 µM, first compound 0.000949 µM): 84.3%; viability, T/C (second compound 0.1 µM, first compound 0.003 µM): 76.1%; viability, T/C (second compound 0.1 µM, first compound 0.00949 µM): 73.1%; viability, T/C (second compound 0.1 µM, first compound 0.03 µM): 68%; viability, T/C (second compound 0.1 µM, first compound 0.0949 µM): 57.4%; viability, T/C (second compound 0.1 µM, first compound 0.3 µM): 46%; viability, T/C (second compound 0.316 µM, first compound 0.000949 µM): 48.7%; viability, T/C (second compound 0.316 µM, first compound 0.003 µM): 46.7%; viability, T/C (second compound 0.316 µM, first compound 0.00949 µM): 45%; viability, T/C (second compound 0.316 µM, first compound 0.03 µM): 43.4%; viability, T/C (second compound 0.316 µM, first compound 0.0949 µM): 39.4%; viability, T/C (second compound 0.316 µM, first compound 0.3 µM): 24.1%; viability, T/C (second compound 1 µM, first compound 0.000949 µM): 37.4%; viability, T/C (second compound 1 µM, first compound 0.003 µM): 36.5%; viability, T/C (second compound 1 µM, first compound 0.00949 µM): 32.7%; viability, T/C (second compound 1 µM, first compound 0.03 µM): 30.3%; viability, T/C (second compound 1 µM, first compound 0.0949 µM): 27%; viability, T/C (second compound 1 µM, first compound 0.3 µM): 18.1%; viability, T/C (second compound 3.16 µM, first compound 0.000949 µM): 36.3%; viability, T/C (second compound 3.16 µM, first compound 0.003 µM): 33.5%; viability, T/C (second compound 3.16 µM, first compound 0.00949 µM): 32.3%; viability, T/C (second compound 3.16 µM, first compound 0.03 µM): 28.6%; viability, T/C (second compound 3.16 µM, first compound 0.0949 µM): 24.8%; viability, T/C (second compound 3.16 µM, first compound 0.3 µM): 17.4%; viability, T/C (second compound 10 µM, first compound 0.000949 µM): 37.2%; viability, T/C (second compound 10 µM, first compound 0.003 µM): 35.6%; viability, T/C (second compound 10 µM, first compound 0.00949 µM): 33%; viability, T/C (second compound 10 µM, first compound 0.03 µM): 32.4%; viability, T/C (second compound 10 µM, first compound 0.0949 µM): 29.3%; viability, T/C (second compound 10 µM, first compound 0.3 µM): 21.1%

From PubChem BioAssay AID2060625 (Molecular Pharmacology Branch, DTP, NCI, 2025)
